# Assay results reported in US20250032598A1, “Compounds, Pharmaceuticals, Formulations, and Methods for Treating and Preventing RNA Virus Infections and Associated Diseases” (ASAVI LLC, priority 2023, published 2025).
# Read-outs that look alike come from different tables or passages of the source.
# How the values were obtained:
# SARS-CoV-2 = assay type: in vivo, Syrian hamsters
# influenza = conditions: cited from earlier work
# [1] = female Syrian hamsters, lung homogenates 96 hours after infection, 50,000 KIU/kg intravenously 2 times a day for 4 days, Lip-APR = composition 2
# [2] = male Syrian hamsters, lung homogenates 96 hours after infection, 50,000 KIU/kg intravenously 2 times a day for 4 days, Lip-APR = composition 2
# [3] = male and female Syrian hamsters pooled, lung homogenates, 10,000 KIU/ml, 50,000 KIU/kg intravenously
substance,measurement,setting,value
aprotinin,Infectious titer lg (TCID50/mL) ± SD,SARS-CoV-2; [1],4.38±0.85 lg (TCID50/mL)
same,Viral load Ct ± SD,SARS-CoV-2; [1],17.51±1.04 Ct
same,Anti-SARS-CoV-2/COVID-19 efficacy (in words),"SARS-CoV-2; intravenous, 50,000 KIU/kg, versus untreated control",no antiviral activity
same,Infectious titer lg (TCID50/mL) ± SD,SARS-CoV-2; [2],3.88±0.48 lg (TCID50/mL)
same,Viral load Ct ± SD,SARS-CoV-2; [2],17.51±1.28 Ct
same,Infectious titer lg (TCID50/mL) ± SD,SARS-CoV-2; [3],4.13±0.69 lg (TCID50/mL)
same,Viral load Ct ± SD,SARS-CoV-2; [3],17.72±1.10 Ct
same,Reduction in viral load compared with patients treated with Ingavirin,"influenza; APR aerosol, patients",approximately 10 fold
same,Side effects and discomfort,influenza; patients of the APR group,not identified
same,"Duration of clinical symptoms, shorter than in the Ingavirin group","influenza; rhinorrhea, weakness, headache, sore throat, cough, chest pain, fever",1 to 2 days
